The test system of this assay is UACC-62. The assay can be described thus: Cytotoxicity against human UACC62 cells. The assay is classed as functional. To be noted: read-out: LC50 (the source's name).

`CC(C)=CC(=O)N/C=C/C(C)=C/[C@@H](C)[C@H]1C/C(C)=C/C=C/CC[C@H](OC(N)=O)[C@@H](O)/C=C/[C@@H](O)CCC/C=C/C(=O)O1` [PALMEROLIDE A]: the CC50 amounted to 0.018 µM.
